Measured values from paper PMC6704710, “Preclinical evaluation of 3D185, a novel potent inhibitor of FGFR1/2/3 and CSF-1R, in FGFR-dependent and macrophage-dominant cancer models” (Journal of Experimental & Clinical Cancer Research : CR, 2019).

Experiments:
STK25(h) = biological target: T1, STK25(h) (Homo sapiens, UniProt O00506); experiment: Eurofins kinase panel; type: biochemical; settings: read-out: Inhibition rate (%)
T1 construct: purchased Eurofins (KinaseProfiler)

cKit(V654A)(h) = biological target: T2, cKit(V654A)(h) (Homo sapiens, UniProt P10721, V654A); experiment: Eurofins kinase panel; type: biochemical; settings: read-out: Inhibition rate (%)
T2 construct: purchased Eurofins (KinaseProfiler)

CaMKI(h) = biological target: T3, CaMKI(h) (Homo sapiens, UniProt Q14012); experiment: Eurofins kinase panel; type: biochemical; settings: read-out: Inhibition rate (%)
T3 construct: purchased Eurofins (KinaseProfiler)

[1] = system: MC38 colorectal adenocarcinoma model; experiment: In vivo antitumor activity, MC38 model; parameters: species or system C57BL/6 mice; settings: oral once daily 23 days
Protocol: For the MC38 xenograft model, 6-week-old C57BL/6 mice were housed and maintained under specific pathogen-free conditions. Tumor cells (2 × 10^6 in 200 μL) were injected subcutaneously (s.c.) into the right flanks of C57BL/6 mice. […] The tumors were measured twice per week using a microcaliper. Tumor volume (TV) was calculated as follows: TV = (length × width^2)/2. In addition, the individual relative tumor volume (RTV) was calculated as follows: RTV = Vt / V0, where Vt is the volume on a particular day and V0 is the volume at the beginning of the treatment. The RTV is shown on the indicated days as the […] ± SEM for the indicated groups of mice.

IRR(h) = biological target: T4, IRR(h) (Homo sapiens, UniProt P14616); experiment: Eurofins kinase panel; type: biochemical; settings: read-out: Inhibition rate (%)
T4 construct: purchased Eurofins (KinaseProfiler)

CLK2(h) = biological target: T5, CLK2(h) (Homo sapiens, UniProt P49760); experiment: Eurofins kinase panel; type: biochemical; settings: read-out: Inhibition rate (%)
T5 construct: purchased Eurofins (KinaseProfiler)

AMPKα2(h) = biological target: T6, AMPKα2(h) (Homo sapiens, UniProt P54646); experiment: Eurofins kinase panel; type: biochemical; settings: read-out: Inhibition rate (%)
T6 construct: purchased Eurofins (KinaseProfiler)

Plk3(h) = biological target: T7, Plk3(h) (Homo sapiens, UniProt Q9H4B4); experiment: Eurofins kinase panel; type: biochemical; settings: read-out: Inhibition rate (%)
T7 construct: purchased Eurofins (KinaseProfiler)

[2] = system: ERK phosphorylation in NCI-H1581 tumors; experiment: Pharmacodynamic study, intratumoral p-ERK; settings: 6 h after single oral dose of 12.5, 25 or 50 mg/kg
[3] = system: 372 human recombinant kinases; experiment: Eurofins kinase panel, overall selectivity; type: biochemical
Protocol: Active FGFR1–4, VEGFR1, KDR, VEGFR3, PDGFRα and PDGFRβ proteins were purchased from Eurofins (Fremont, United States), and kinase activity was assessed using ELISA, as previously reported. The broader kinase selectivity profile of 3D185 (0.01, 0.1, and 1 μM) was determined by Eurofins by screening the compound against 372 human recombinant kinases. Increasing concentrations of ATP were diluted for the kinase reaction in the ATP competition assay. CSF-1R kinase activity was analyzed using the Z’-LYTE™ Kinase Assay Kit (Thermo Fisher, United States). The assay formats are described in the SelectScreen Kinase Profiling Service Zlyte protocol. IC50 values were calculated by dose-response curve fitting using Prism (Graph Pad).

GSK3β(h) = biological target: T8, GSK3β(h) (Homo sapiens, UniProt P49841); experiment: Eurofins kinase panel; type: biochemical; settings: read-out: Inhibition rate (%)
T8 construct: purchased Eurofins (KinaseProfiler)

CDK9/cyclin T1(h) = biological target: T9, CDK9/cyclin T1(h) (Homo sapiens, UniProt P50750); experiment: Eurofins kinase panel; type: biochemical; settings: read-out: Inhibition rate (%)
T9 construct: purchased Eurofins (KinaseProfiler)

SGC-7901 = experiment: Cell proliferation assay; type: cell-based; settings: Homo sapiens, Fig. 2G
Protocol: The cancer cell lines indicated in Figure 3 were seeded in 96-well plates at a low density in growth medium. The next day, appropriate controls or the designated concentrations of the compounds were added to each well, and the cells were incubated for 72 h. HUVECs (passage 3) were seeded in 96-well plates in growth medium overnight and transferred to serum-free medium for 24 h. The following day, appropriate controls or the designated concentrations of the compounds were added to each well, and 100 ng/mL growth factor (bFGF or VEGF) was added to the indicated wells. The cells were incubated for 48 h. Finally, cell proliferation was determined using a sulforhodamine B (SRB) assay or a cell counting kit-8 (CCK-8) assay. […] IC50 values for proliferation curves were calculated using a 4-parameter logistic nonlinear regression model with SoftMax Pro Software (Molecular Devices, San Jose, USA).

Mnk2(h) = biological target: T10, Mnk2(h) (Homo sapiens, UniProt Q9HBH9); experiment: Eurofins kinase panel; type: biochemical; settings: read-out: Inhibition rate (%)
T10 construct: purchased Eurofins (KinaseProfiler)

Pim-1(h) = biological target: T11, Pim-1(h) (Homo sapiens, UniProt P11309); experiment: Eurofins kinase panel; type: biochemical; settings: read-out: Inhibition rate (%)
T11 construct: purchased Eurofins (KinaseProfiler)

CLK3(h) = biological target: T12, CLK3(h) (Homo sapiens, UniProt P49761); experiment: Eurofins kinase panel; type: biochemical; settings: read-out: Inhibition rate (%)
T12 construct: purchased Eurofins (KinaseProfiler)
T12 sequence (P49761 whole entry): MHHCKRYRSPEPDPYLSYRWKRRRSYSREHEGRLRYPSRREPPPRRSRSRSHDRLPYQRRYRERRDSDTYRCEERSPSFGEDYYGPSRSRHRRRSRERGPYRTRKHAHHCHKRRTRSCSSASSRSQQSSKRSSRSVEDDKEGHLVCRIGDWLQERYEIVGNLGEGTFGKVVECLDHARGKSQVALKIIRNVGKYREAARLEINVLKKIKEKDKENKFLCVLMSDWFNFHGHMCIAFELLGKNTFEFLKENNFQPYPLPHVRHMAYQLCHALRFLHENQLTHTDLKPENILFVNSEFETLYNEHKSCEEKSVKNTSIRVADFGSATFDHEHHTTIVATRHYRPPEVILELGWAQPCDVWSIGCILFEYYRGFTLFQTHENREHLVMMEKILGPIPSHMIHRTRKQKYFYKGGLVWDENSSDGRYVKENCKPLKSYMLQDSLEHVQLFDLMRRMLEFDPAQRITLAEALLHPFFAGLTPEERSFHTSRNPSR

T1 sequence (O00506 whole entry): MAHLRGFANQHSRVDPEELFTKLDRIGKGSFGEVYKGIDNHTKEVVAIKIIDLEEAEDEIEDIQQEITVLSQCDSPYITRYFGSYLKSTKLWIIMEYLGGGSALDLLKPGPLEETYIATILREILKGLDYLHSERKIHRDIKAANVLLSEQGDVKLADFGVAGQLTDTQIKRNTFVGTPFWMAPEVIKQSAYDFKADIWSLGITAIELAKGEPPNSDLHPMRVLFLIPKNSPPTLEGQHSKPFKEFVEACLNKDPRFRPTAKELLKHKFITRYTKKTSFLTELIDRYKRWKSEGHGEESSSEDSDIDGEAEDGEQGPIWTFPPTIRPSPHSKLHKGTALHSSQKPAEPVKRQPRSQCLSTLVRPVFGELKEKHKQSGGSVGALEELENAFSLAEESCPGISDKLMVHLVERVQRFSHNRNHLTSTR
T7 sequence (Q9H4B4 whole entry): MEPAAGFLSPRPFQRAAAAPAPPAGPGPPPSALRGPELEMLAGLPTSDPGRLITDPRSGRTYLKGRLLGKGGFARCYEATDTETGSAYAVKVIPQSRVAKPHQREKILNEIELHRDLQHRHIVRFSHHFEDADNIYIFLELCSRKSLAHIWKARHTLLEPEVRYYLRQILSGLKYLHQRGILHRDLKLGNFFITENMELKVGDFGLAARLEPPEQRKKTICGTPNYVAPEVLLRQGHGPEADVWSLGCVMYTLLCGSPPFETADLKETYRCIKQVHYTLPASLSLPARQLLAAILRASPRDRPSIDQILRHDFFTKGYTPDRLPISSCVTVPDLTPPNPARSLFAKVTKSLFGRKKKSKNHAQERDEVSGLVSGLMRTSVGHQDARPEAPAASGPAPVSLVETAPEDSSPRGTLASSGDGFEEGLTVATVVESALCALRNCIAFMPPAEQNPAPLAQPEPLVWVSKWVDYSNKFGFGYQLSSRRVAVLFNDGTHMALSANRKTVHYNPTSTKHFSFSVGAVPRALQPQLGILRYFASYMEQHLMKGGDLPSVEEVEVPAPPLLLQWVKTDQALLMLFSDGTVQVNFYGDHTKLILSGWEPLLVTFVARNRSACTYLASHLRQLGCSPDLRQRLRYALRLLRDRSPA
T5 sequence (P49760 whole entry): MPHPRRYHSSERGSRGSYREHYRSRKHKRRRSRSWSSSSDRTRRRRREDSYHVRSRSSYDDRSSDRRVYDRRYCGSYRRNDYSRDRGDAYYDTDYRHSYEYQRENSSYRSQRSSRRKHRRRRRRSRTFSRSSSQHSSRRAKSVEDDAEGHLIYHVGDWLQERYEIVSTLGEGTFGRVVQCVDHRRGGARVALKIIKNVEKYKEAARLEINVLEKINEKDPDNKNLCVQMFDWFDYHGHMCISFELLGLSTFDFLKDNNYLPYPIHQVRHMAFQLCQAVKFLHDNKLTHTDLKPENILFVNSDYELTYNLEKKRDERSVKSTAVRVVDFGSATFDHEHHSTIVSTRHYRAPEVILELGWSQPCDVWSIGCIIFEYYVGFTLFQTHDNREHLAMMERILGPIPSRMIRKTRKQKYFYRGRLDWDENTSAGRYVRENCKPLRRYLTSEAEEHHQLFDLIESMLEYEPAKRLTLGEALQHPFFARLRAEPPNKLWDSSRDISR
T8 sequence (P49841 whole entry): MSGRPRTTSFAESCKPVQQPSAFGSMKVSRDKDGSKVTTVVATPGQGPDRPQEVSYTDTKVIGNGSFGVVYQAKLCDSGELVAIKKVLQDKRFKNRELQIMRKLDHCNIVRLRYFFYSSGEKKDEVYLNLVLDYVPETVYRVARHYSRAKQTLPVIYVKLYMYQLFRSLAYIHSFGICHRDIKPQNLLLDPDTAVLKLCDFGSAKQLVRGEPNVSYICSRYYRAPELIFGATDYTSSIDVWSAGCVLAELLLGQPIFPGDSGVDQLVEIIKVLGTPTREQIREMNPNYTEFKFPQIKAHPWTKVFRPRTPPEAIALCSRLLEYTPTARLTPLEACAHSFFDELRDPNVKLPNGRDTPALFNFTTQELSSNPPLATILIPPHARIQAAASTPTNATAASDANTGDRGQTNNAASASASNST
T3 sequence (Q14012 whole entry): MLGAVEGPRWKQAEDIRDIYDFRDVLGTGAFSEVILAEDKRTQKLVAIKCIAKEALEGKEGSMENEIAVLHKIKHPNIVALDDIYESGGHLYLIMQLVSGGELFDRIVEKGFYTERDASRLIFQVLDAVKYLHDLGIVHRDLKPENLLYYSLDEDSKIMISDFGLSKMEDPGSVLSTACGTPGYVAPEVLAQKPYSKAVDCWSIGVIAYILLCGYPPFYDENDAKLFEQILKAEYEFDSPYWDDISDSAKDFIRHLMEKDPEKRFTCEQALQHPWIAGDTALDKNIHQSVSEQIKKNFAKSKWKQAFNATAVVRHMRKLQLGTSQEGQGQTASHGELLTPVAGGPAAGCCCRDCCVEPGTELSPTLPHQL
T4 sequence (P14616 27-1297): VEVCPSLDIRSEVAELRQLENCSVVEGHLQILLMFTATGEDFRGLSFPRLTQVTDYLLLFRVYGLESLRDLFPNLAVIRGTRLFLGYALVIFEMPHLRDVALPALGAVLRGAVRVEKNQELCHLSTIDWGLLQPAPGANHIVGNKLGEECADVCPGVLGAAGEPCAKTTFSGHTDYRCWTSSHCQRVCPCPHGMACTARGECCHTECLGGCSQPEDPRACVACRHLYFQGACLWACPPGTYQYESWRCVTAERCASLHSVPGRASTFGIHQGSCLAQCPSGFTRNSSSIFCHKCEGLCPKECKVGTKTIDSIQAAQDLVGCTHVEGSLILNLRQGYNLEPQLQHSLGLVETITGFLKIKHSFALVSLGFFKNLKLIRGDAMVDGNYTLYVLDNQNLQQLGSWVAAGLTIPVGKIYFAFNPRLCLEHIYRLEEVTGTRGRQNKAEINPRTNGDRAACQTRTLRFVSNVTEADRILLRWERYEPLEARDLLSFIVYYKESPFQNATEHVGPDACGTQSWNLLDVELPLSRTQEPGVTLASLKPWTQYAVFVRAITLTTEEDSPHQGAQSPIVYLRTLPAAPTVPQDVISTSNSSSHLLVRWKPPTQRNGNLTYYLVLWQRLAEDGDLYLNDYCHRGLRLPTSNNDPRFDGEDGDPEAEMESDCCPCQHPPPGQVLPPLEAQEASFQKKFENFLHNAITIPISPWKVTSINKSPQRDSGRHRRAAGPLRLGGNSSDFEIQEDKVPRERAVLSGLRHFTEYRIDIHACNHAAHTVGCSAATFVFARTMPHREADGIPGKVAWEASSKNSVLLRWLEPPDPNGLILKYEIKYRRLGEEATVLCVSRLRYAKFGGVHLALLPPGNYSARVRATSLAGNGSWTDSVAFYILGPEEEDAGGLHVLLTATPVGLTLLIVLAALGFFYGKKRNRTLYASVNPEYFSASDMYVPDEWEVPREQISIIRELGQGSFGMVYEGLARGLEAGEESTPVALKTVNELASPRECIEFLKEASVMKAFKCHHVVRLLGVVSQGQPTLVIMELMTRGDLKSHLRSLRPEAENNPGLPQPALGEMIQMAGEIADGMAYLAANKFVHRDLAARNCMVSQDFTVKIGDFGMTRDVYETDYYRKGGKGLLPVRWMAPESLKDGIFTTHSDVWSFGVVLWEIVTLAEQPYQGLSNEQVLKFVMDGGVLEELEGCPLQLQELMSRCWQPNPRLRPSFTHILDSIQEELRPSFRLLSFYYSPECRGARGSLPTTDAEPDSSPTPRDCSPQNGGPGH
T11 sequence (P11309 whole entry): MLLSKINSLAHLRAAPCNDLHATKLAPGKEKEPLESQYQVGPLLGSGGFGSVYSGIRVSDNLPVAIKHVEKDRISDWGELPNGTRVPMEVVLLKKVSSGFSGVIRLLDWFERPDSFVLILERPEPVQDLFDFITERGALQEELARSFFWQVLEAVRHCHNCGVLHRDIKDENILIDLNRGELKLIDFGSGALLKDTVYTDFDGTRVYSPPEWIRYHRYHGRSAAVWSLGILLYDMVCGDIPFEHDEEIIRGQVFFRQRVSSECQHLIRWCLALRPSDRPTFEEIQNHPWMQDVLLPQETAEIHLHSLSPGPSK
T10 sequence (Q9HBH9 whole entry): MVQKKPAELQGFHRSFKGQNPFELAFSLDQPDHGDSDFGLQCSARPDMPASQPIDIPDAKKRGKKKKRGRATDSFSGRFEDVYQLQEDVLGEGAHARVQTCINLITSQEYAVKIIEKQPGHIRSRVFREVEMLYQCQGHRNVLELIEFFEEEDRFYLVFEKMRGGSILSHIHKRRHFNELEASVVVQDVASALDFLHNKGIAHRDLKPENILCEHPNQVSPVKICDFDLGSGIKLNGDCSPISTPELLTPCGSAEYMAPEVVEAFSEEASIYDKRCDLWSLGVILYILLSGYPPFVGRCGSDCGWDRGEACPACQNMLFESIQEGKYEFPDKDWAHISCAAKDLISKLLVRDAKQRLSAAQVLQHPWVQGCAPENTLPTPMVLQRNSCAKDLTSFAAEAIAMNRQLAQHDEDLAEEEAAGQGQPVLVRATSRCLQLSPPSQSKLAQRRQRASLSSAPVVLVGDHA

`COc1cc(OC)c(Cl)c(-c2ccc3c(NC(=O)c4ccc(N5CCNC(C)(C)C5)cc4)n[nH]c3n2)c1Cl` [3D185] gave an inhibition at 0.01 µM (STK25(h); 10 nM) of 7%, an inhibition at 0.1 µM (STK25(h); 100 nM) of 22% and an inhibition at 1 µM (STK25(h); 1000 nM) of 57%. For the same compound, the inhibition at 0.01 µM (cKit(V654A)(h); 10 nM) was 4%, the inhibition at 0.1 µM (cKit(V654A)(h); 100 nM) was 14% and the inhibition at 1 µM (cKit(V654A)(h); 1000 nM) was 37%. It also gave an inhibition at 0.01 µM (CaMKI(h); 10 nM) of 11%, an inhibition at 0.1 µM (CaMKI(h); 100 nM) of 14% and an inhibition at 1 µM (CaMKI(h); 1000 nM) of 64%. For the same compound, the “effect on MC38 tumor growth” value [1] was “delayed tumor growth”, the inhibition at 0.01 µM (IRR(h); 10 nM) was -5% and the inhibition at 0.1 µM (IRR(h); 100 nM) was 5%. It also gave an inhibition at 1 µM (IRR(h); 1000 nM) of 1%, an inhibition at 0.01 µM (CLK2(h); 10 nM) of 5% and an inhibition at 0.1 µM (CLK2(h); 100 nM) of 3%. For the same compound, the inhibition at 1 µM (CLK2(h); 1000 nM) was 7%, the inhibition at 0.01 µM (AMPKα2(h); 10 nM) was -4% and the inhibition at 0.1 µM (AMPKα2(h); 100 nM) was -8%. The inhibition at 1 µM (AMPKα2(h); 1000 nM) was 9%, the inhibition at 0.01 µM (Plk3(h); 10 nM) was 5% and the inhibition at 0.1 µM (Plk3(h); 100 nM) was 1%. For the same compound, the inhibition at 1 µM (Plk3(h); 1000 nM) was 6%, the “intratumoral ERK phosphorylation” value [2] was “nearly complete inhibition of ERK phosphorylation” and the “selectivity for FGFR1 over other kinases” value ([3]; 17 kinases) was over 20 fold. The “selectivity for FGFR1 over other kinases” value ([3]; 349 kinases) was “greater than 200 fold”, the inhibition at 0.01 µM (GSK3β(h); 10 nM) was 0% and the inhibition at 0.1 µM (GSK3β(h); 100 nM) was 5%. It also gave an inhibition at 1 µM (GSK3β(h); 1000 nM) of -5%, an inhibition at 0.01 µM (CDK9/cyclin T1(h); 10 nM) of -12% and an inhibition at 0.1 µM (CDK9/cyclin T1(h); 100 nM) of 0%. For the same compound, the inhibition at 1 µM (CDK9/cyclin T1(h); 1000 nM) was 4%, the IC50 (SGC-7901) was over 1000 nM and the inhibition at 0.01 µM (Mnk2(h); 10 nM) was -2%. For the same compound, the inhibition at 0.1 µM (Mnk2(h); 100 nM) was -10%, the inhibition at 1 µM (Mnk2(h); 1000 nM) was -9% and the inhibition at 0.01 µM (Pim-1(h); 10 nM) was -5%. It also gave an inhibition at 0.1 µM (Pim-1(h); 100 nM) of 13%, an inhibition at 1 µM (Pim-1(h); 1000 nM) of 9% and an inhibition at 0.01 µM (CLK3(h); 10 nM) of 2%. For the same compound, the inhibition at 0.1 µM (CLK3(h); 100 nM) was 9% and the inhibition at 1 µM (CLK3(h); 1000 nM) was 16%.
